pEC50: −log10 of the molar value.
Columns and labels:
[1] = Cytotoxicity against human MRC5 SV2 cells assessed as reduction in cell viability after 3 days resazurin-based fluorimetric assay; conditions: MRC-5 SV2, 72 h
Trypanosoma cruzi = test: Antiparasitic activity against Trypanosoma cruzi Tulahuen CL2 intracellular amastigotes expressing beta-galactosidase infected in human MRC5 SV2 cells after 7 days by chlorophenol red beta-D-galactopyranoside-based spectrophotometric analysis; type: functional, organism-based; conditions: Tulahuen CL2, MRC-5 SV2, 168 h, read-out: EC50
[2] = Therapeutic index, ratio EC50 for human MRC5 SV2 cells to EC50 for Trypanosoma cruzi Tulahuen CL2 intracellular amastigotes; type: toxicity, cell-based; conditions: read-out: Ratio EC50
[3] = test system: UDP-glucuronosyltransferases (UGTs); test: Drug metabolism in human liver microsome S9 fraction assessed as UGT-mediated metabolism by measuring compound remaining at 5 uM pretreated with UDPGA and measured after 30 mins by UPLC-MS/MS analysis; type: ADME, microsomes; conditions: microsomes, 0.5 h, 5 µM
[4] = Drug metabolism in mouse liver microsome S9 fraction assessed as UGT-mediated metabolism by measuring compound remaining at 5 uM pretreated with UDPGA and measured after 15 mins by UPLC-MS/MS analysis; type: ADME, microsomes; conditions: microsomes, 0.25 h, 5 µM
Cytochrome P450 [5] = test: Drug metabolism in human liver microsome S9 fraction assessed as CYP450-mediated metabolism by measuring compound remaining at 5 uM pretreated with NADPH and measured after 60 mins by UPLC-MS/MS analysis; type: ADME, microsomes; conditions: microsomes, 1 h, 5 µM
[6] = Drug metabolism in rat liver microsome S9 fraction assessed as UGT-mediated metabolism by measuring compound remaining at 5 uM pretreated with UDPGA and measured after 60 mins by UPLC-MS/MS analysis; type: ADME, microsomes; conditions: microsomes, 1 h, 5 µM
[7] = Drug metabolism in rat liver microsome S9 fraction assessed as UGT-mediated metabolism by measuring compound remaining at 5 uM pretreated with UDPGA and measured after 30 mins by UPLC-MS/MS analysis; type: ADME, microsomes; conditions: microsomes, 0.5 h, 5 µM
[8] = Drug metabolism in dog liver microsome S9 fraction assessed as CYP450-mediated metabolism by measuring compound remaining at 5 uM pretreated with NADPH and measured after 30 mins by UPLC-MS/MS analysis; type: ADME, microsomes, Canis lupus familiaris; conditions: microsomes, 0.5 h, 5 µM
[9] = Drug metabolism in dog liver microsome S9 fraction assessed as UGT-mediated metabolism by measuring compound remaining at 5 uM pretreated with UDPGA and measured after 60 mins by UPLC-MS/MS analysis; type: ADME, microsomes, Canis lupus familiaris; conditions: microsomes, 1 h, 5 µM
[10] = Drug metabolism in dog liver microsome S9 fraction assessed as CYP450-mediated metabolism by measuring compound remaining at 5 uM pretreated with NADPH and measured after 15 mins by UPLC-MS/MS analysis; type: ADME, microsomes, Canis lupus familiaris; conditions: microsomes, 0.25 h, 5 µM
[11] = test system: UDP-glucuronosyltransferases (UGTs); test: Drug metabolism in human liver microsome S9 fraction assessed as UGT-mediated metabolism by measuring compound remaining at 5 uM pretreated with UDPGA and measured after 15 mins by UPLC-MS/MS analysis; type: ADME, microsomes; conditions: microsomes, 0.25 h, 5 µM
[12] = Drug metabolism in mouse liver microsome S9 fraction assessed as CYP450-mediated metabolism by measuring compound remaining at 5 uM pretreated with NADPH and measured after 30 mins by UPLC-MS/MS analysis; type: ADME, microsomes; conditions: microsomes, 0.5 h, 5 µM
Cytochrome P450 [13] = test: Drug metabolism in human liver microsome S9 fraction assessed as CYP450-mediated metabolism by measuring compound remaining at 5 uM pretreated with NADPH and measured after 15 mins by UPLC-MS/MS analysis; type: ADME, microsomes; conditions: microsomes, 0.25 h, 5 µM
[14] = Drug metabolism in rat liver microsome S9 fraction assessed as CYP450-mediated metabolism by measuring compound remaining at 5 uM pretreated with NADPH and measured after 60 mins by UPLC-MS/MS analysis; type: ADME, microsomes; conditions: microsomes, 1 h, 5 µM
[15] = test system: UDP-glucuronosyltransferases (UGTs); test: Drug metabolism in human liver microsome S9 fraction assessed as UGT-mediated metabolism by measuring compound remaining at 5 uM pretreated with UDPGA and measured after 60 mins by UPLC-MS/MS analysis; type: ADME, microsomes; conditions: microsomes, 1 h, 5 µM
Cytochrome P450 [16] = test: Drug metabolism in human liver microsome S9 fraction assessed as CYP450-mediated metabolism by measuring compound remaining at 5 uM pretreated with NADPH and measured after 30 mins by UPLC-MS/MS analysis; type: ADME, microsomes; conditions: microsomes, 0.5 h, 5 µM
[17] = Drug metabolism in mouse liver microsome S9 fraction assessed as UGT-mediated metabolism by measuring compound remaining at 5 uM pretreated with UDPGA and measured after 30 mins by UPLC-MS/MS analysis; type: ADME, microsomes; conditions: microsomes, 0.5 h, 5 µM
[18] = Drug metabolism in rat liver microsome S9 fraction assessed as CYP450-mediated metabolism by measuring compound remaining at 5 uM pretreated with NADPH and measured after 15 mins by UPLC-MS/MS analysis; type: ADME, microsomes; conditions: microsomes, 0.25 h, 5 µM
[19] = Drug metabolism in rat liver microsome S9 fraction assessed as UGT-mediated metabolism by measuring compound remaining at 5 uM pretreated with UDPGA and measured after 15 mins by UPLC-MS/MS analysis; type: ADME, microsomes; conditions: microsomes, 0.25 h, 5 µM
[20] = Drug metabolism in mouse liver microsome S9 fraction assessed as CYP450-mediated metabolism by measuring compound remaining at 5 uM pretreated with NADPH and measured after 60 mins by UPLC-MS/MS analysis; type: ADME, microsomes; conditions: microsomes, 1 h, 5 µM
[21] = Drug metabolism in dog liver microsome S9 fraction assessed as UGT-mediated metabolism by measuring compound remaining at 5 uM pretreated with UDPGA and measured after 30 mins by UPLC-MS/MS analysis; type: ADME, microsomes, Canis lupus familiaris; conditions: microsomes, 0.5 h, 5 µM
[22] = Drug metabolism in mouse liver microsome S9 fraction assessed as UGT-mediated metabolism by measuring compound remaining at 5 uM pretreated with UDPGA and measured after 60 mins by UPLC-MS/MS analysis; type: ADME, microsomes; conditions: microsomes, 1 h, 5 µM
[23] = Drug metabolism in dog liver microsome S9 fraction assessed as CYP450-mediated metabolism by measuring compound remaining at 5 uM pretreated with NADPH and measured after 60 mins by UPLC-MS/MS analysis; type: ADME, microsomes, Canis lupus familiaris; conditions: microsomes, 1 h, 5 µM
[24] = Drug metabolism in rat liver microsome S9 fraction assessed as CYP450-mediated metabolism by measuring compound remaining at 5 uM pretreated with NADPH and measured after 30 mins by UPLC-MS/MS analysis; type: ADME, microsomes; conditions: microsomes, 0.5 h, 5 µM
[25] = Drug metabolism in mouse liver microsome S9 fraction assessed as CYP450-mediated metabolism by measuring compound remaining at 5 uM pretreated with NADPH and measured after 15 mins by UPLC-MS/MS analysis; type: ADME, microsomes; conditions: microsomes, 0.25 h, 5 µM
[26] = Drug metabolism in dog liver microsome S9 fraction assessed as UGT-mediated metabolism by measuring compound remaining at 5 uM pretreated with UDPGA and measured after 15 mins by UPLC-MS/MS analysis; type: ADME, microsomes, Canis lupus familiaris; conditions: microsomes, 0.25 h, 5 µM

Question: With `Nc1ncnc2c1c(-c1cccc(Cl)c1)cn2[C@@H]1O[C@H](CO)C[C@H]1O` as the compound, how does the pEC50 [1] read?
Answer: 4.44

Question: What about the pEC50 (Trypanosoma cruzi) of the same compound?
Answer: 6.01

Question: What about the selectivity ratio [2] of the same compound?
Answer: 37

Question: With `CCc1ccc(-c2cn([C@@H]3O[C@H](CO)C[C@H]3O)c3ncnc(N)c23)cc1` as the compound, how does the pEC50 [1] read?
Answer: 4.74

Question: What about the pEC50 (Trypanosoma cruzi) of the same compound?
Answer: 5.98

Question: And the selectivity ratio [2]?
Answer: 18

Question: With `Cc1cccc(-c2cn([C@@H]3O[C@H](CO)C[C@H]3O)c3ncnc(N)c23)c1` as the compound, how does the pEC50 [1] read?
Answer: < 4.19

Question: What about the pEC50 (Trypanosoma cruzi) of the same compound?
Answer: 5.29

Question: What about the selectivity ratio [2] of the same compound?
Answer: > 12

Question: With `COc1ccc(-c2cn([C@@H]3O[C@H](CO)C[C@H]3O)c3ncnc(N)c23)cc1` as the compound, how does the pEC50 [1] read?
Answer: 4.61

Question: What about the pEC50 (Trypanosoma cruzi) of the same compound?
Answer: 5.62

Question: And the selectivity ratio [2]?
Answer: 10

Question: Which results are given for `Cc1ccc(-c2cn([C@@H]3O[C@H](CO)C[C@H]3O)c3ncnc(N)c23)cc1`?
Answer: pEC50 [1]: 4.68; pEC50 (Trypanosoma cruzi): 6.34; selectivity ratio [2]: 46

Question: With `Nc1ncnc2c1c(-c1cccc(C(F)(F)F)c1)cn2[C@@H]1O[C@H](CO)C[C@H]1O` as the compound, how does the pEC50 [1] read?
Answer: 4.30

Question: And the pEC50 (Trypanosoma cruzi)?
Answer: 4.95

Question: And the selectivity ratio [2]?
Answer: 4.4

Question: With `Nc1ncnc2c1c(-c1cc(Cl)cc(Cl)c1)cn2[C@@H]1O[C@H](CO)C[C@H]1O` as the compound, how does the pEC50 [1] read?
Answer: 4.52

Question: What about the pEC50 (Trypanosoma cruzi) of the same compound?
Answer: 6.26

Question: And the selectivity ratio [2]?
Answer: 55

Question: Which Stability [3] does the source give for `O=C(O)Cc1ccccc1Nc1c(Cl)cccc1Cl` [DICLOFENAC] here?
Answer: Unstable

Question: And the Stability [4]?
Answer: Unstable

Question: What about the Stability (Cytochrome P450 [5]) of the same compound?
Answer: Unstable

Question: And the Stability [6]?
Answer: Unstable

Question: What about the Stability [7] of the same compound?
Answer: Unstable

Question: What about the Stability [8] of the same compound?
Answer: Unstable

Question: And the Stability [9]?
Answer: Unstable

Question: What about the Stability [10] of the same compound?
Answer: Unstable

Question: What about the Stability [11] of the same compound?
Answer: Unstable

Question: What about the Stability [12] of the same compound?
Answer: Unstable

Question: And the Stability (Cytochrome P450 [13])?
Answer: Unstable

Question: What about the Stability [14] of the same compound?
Answer: Unstable

Question: What about the Stability [15] of the same compound?
Answer: Unstable

Question: And the Stability (Cytochrome P450 [16])?
Answer: Unstable

Question: What about the Stability [17] of the same compound?
Answer: Unstable

Question: And the Stability [18]?
Answer: Unstable

Question: What about the Stability [19] of the same compound?
Answer: Unstable

Question: And the Stability [20]?
Answer: Unstable

Question: And the Stability [21]?
Answer: Unstable

Question: And the Stability [22]?
Answer: Unstable

Question: What about the Stability [23] of the same compound?
Answer: Unstable

Question: What about the Stability [24] of the same compound?
Answer: Unstable

Question: And the Stability [25]?
Answer: Unstable

Question: And the Stability [26]?
Answer: Unstable

Question: With `Nc1ncnc2c1c(-c1ccc(F)c(F)c1)cn2[C@@H]1O[C@H](CO)C[C@H]1O` as the compound, how does the pEC50 [1] read?
Answer: < 4.19

Question: What about the pEC50 (Trypanosoma cruzi) of the same compound?
Answer: 6.48

Question: And the selectivity ratio [2]?
Answer: > 190

Question: Which results are given for `Cc1ccc(-c2cn([C@@H]3O[C@H](CO)C[C@H]3O)c3ncnc(N)c23)cc1C`?
Answer: pEC50 [1]: 4.65; pEC50 (Trypanosoma cruzi): 5.86; selectivity ratio [2]: 16

Question: Which results are given for `Nc1ncnc2c1c(-c1ccc([N+](=O)[O-])cc1)cn2[C@@H]1O[C@H](CO)C[C@H]1O`?
Answer: pEC50 [1]: < 4.19; pEC50 (Trypanosoma cruzi): 5.92; selectivity ratio [2]: > 53

Question: What does the source list for `Nc1ncnc2c1c(C1=CCCCC1)cn2[C@@H]1O[C@H](CO)C[C@H]1O`?
Answer: pEC50 [1]: < 4.19; pEC50 (Trypanosoma cruzi): 4.50; selectivity ratio [2]: > 2

Question: What does the source list for `Nc1ncnc2c1c(-c1ccc(Cl)cc1Cl)cn2[C@@H]1O[C@H](CO)C[C@H]1O`?
Answer: pEC50 [1]: 4.71; pEC50 (Trypanosoma cruzi): 6.35; selectivity ratio [2]: 44

Question: With `OC(Cn1cncn1)(Cn1cncn1)c1ccc(F)cc1F` [FLUCONAZOLE] as the compound, how does the Stability (Cytochrome P450 [5]) read?
Answer: Stable

Question: And the Stability [8]?
Answer: Stable

Question: What about the Stability [10] of the same compound?
Answer: Stable

Question: What about the Stability [12] of the same compound?
Answer: Stable

Question: What about the Stability (Cytochrome P450 [13]) of the same compound?
Answer: Stable

Question: And the Stability [14]?
Answer: Stable

Question: What about the Stability (Cytochrome P450 [16]) of the same compound?
Answer: Stable

Question: And the Stability [18]?
Answer: Stable

Question: What about the Stability [20] of the same compound?
Answer: Stable

Question: What about the Stability [23] of the same compound?
Answer: Stable

Question: What about the Stability [24] of the same compound?
Answer: Stable

Question: What about the Stability [25] of the same compound?
Answer: Stable

Question: With `COc1ccc(-c2cn([C@@H]3O[C@H](CO)C[C@H]3O)c3ncnc(N)c23)cc1Cl` as the compound, how does the pEC50 [1] read?
Answer: < 4.19

Question: And the pEC50 (Trypanosoma cruzi)?
Answer: 5.48

Question: And the selectivity ratio [2]?
Answer: > 19

Source: ChEMBL document CHEMBL4382200, “Discovery of Novel 7-Aryl 7-Deazapurine 3'-Deoxy-ribofuranosyl Nucleosides with Potent Activity against Trypanosoma cruzi” (J Med Chem, 2018)
